Data as given in ChEMBL document CHEMBL5291721, “A preclinical secondary pharmacology resource illuminates target-adverse drug reaction associations of marketed drugs” (Nat Commun, 2023).

Tests used:
[1] = target: Acetylcholinesterase (Homo sapiens, UniProt P22303); format: functional
[2] = target: T1, Alpha-2A adrenergic receptor (Homo sapiens, UniProt P08913)
T1 sequence (P08913 whole entry): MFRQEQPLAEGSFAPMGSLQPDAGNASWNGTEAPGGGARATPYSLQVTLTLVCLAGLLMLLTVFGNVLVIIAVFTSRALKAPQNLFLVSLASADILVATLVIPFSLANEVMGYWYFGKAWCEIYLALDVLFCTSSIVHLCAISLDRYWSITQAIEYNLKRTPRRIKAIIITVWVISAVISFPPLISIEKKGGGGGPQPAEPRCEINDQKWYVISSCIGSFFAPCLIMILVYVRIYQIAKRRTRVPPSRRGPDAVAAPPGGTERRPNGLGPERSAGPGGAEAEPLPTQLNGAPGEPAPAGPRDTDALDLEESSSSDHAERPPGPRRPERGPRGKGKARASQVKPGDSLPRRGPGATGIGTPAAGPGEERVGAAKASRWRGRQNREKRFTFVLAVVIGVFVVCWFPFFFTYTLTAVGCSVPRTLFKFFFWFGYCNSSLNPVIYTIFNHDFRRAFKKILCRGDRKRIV

[3] = target: T2, Muscarinic acetylcholine receptor M2 (Homo sapiens, UniProt P08172)
T2 sequence (P08172 whole entry): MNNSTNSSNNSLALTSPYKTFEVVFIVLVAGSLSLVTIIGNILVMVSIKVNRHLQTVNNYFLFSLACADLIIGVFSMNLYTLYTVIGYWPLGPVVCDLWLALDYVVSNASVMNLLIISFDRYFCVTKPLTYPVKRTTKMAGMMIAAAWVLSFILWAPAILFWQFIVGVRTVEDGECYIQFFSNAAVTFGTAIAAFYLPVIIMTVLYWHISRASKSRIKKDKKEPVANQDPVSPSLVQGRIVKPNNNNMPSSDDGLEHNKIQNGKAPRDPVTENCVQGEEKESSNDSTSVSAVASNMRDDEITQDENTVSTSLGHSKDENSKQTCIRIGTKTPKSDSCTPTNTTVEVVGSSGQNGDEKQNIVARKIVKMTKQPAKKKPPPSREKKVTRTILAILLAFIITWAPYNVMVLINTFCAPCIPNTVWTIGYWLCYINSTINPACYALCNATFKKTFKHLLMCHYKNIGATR

[4] = target: D(1A) dopamine receptor (Homo sapiens, UniProt P21728)
[5] = target: D(3) dopamine receptor (Homo sapiens, UniProt P35462)
[6] = target: Prothrombin (Homo sapiens, UniProt P00734); format: functional
[7] = target: Histamine H3 receptor (Homo sapiens, UniProt Q9Y5N1)
[8] = target: T3, 5-hydroxytryptamine receptor 1A (Homo sapiens, UniProt P08908)
T3 sequence (P08908 whole entry): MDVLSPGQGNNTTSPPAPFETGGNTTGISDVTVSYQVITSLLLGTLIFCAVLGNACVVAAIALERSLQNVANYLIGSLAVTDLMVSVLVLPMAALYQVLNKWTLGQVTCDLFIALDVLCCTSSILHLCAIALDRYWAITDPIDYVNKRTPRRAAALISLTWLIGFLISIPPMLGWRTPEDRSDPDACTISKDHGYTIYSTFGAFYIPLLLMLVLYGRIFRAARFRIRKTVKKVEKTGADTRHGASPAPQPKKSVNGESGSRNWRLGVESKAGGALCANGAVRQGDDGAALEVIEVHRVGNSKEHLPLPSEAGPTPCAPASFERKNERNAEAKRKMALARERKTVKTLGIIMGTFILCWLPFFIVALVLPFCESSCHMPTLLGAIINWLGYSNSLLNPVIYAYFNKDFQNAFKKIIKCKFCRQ

[9] = target: Voltage-gated inwardly rectifying potassium channel KCNH2 (Homo sapiens, UniProt Q12809); format: functional; conditions: read-out: AC50
[10] = target: cGMP-inhibited 3',5'-cyclic phosphodiesterase 3A (Homo sapiens, UniProt Q14432); format: functional
[11] = target: 3',5'-cyclic-AMP phosphodiesterase 4A (Homo sapiens, UniProt P27815); format: functional
[12] = target: T4, Prostaglandin G/H synthase 1 (Homo sapiens, UniProt P23219); format: functional
[13] = target: T4, Prostaglandin G/H synthase 1; format: functional; remark: listed apart in the source
[14] = target: Sodium-dependent dopamine transporter (Homo sapiens, UniProt Q01959)
[15] = target: T5, Thromboxane A2 receptor (Homo sapiens, UniProt P21731); format: functional, cell-based
T5 sequence (P21731 whole entry): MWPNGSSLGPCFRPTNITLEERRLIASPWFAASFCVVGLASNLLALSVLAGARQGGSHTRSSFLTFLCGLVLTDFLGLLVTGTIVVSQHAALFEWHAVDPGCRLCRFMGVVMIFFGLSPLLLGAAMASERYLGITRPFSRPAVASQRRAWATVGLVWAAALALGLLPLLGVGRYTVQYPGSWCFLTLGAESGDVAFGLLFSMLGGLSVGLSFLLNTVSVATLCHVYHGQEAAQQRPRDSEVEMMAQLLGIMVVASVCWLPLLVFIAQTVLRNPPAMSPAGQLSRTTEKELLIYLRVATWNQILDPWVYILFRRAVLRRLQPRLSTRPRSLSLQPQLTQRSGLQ
Also: assay procedure not described here.

Chain of Voltage-gated inwardly rectifying potassium channel KCNH2 (Q12809 whole entry): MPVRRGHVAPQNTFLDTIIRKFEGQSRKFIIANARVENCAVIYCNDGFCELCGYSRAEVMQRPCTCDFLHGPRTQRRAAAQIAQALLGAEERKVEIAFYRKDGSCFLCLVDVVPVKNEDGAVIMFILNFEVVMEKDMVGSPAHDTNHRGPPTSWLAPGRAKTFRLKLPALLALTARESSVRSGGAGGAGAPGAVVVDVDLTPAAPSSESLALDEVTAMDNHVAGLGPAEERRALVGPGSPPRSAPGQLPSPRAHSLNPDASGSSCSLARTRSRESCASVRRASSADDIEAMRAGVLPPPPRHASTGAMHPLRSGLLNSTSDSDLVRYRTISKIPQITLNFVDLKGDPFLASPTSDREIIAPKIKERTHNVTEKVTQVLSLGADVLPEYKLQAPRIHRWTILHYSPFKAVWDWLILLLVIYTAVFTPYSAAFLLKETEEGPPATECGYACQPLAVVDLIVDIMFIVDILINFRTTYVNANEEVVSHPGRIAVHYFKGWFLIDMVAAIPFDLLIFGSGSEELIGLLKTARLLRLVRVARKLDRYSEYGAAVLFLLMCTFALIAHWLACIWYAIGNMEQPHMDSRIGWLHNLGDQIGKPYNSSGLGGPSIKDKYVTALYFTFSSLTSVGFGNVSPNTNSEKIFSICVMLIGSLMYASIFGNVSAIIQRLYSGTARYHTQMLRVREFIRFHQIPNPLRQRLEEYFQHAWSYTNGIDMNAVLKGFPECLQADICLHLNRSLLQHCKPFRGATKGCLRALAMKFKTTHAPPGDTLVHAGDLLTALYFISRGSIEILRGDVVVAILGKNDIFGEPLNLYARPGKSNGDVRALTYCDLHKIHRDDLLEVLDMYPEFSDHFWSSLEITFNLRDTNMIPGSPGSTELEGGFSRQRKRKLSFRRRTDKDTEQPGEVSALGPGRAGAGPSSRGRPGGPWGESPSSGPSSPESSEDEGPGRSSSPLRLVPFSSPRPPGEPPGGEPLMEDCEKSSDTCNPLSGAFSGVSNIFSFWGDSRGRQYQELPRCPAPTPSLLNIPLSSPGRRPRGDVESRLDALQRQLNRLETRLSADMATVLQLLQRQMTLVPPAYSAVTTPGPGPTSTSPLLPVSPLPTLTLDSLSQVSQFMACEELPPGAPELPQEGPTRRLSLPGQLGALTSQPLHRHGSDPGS
Chain of cGMP-inhibited 3',5'-cyclic phosphodiesterase 3A (Q14432 whole entry): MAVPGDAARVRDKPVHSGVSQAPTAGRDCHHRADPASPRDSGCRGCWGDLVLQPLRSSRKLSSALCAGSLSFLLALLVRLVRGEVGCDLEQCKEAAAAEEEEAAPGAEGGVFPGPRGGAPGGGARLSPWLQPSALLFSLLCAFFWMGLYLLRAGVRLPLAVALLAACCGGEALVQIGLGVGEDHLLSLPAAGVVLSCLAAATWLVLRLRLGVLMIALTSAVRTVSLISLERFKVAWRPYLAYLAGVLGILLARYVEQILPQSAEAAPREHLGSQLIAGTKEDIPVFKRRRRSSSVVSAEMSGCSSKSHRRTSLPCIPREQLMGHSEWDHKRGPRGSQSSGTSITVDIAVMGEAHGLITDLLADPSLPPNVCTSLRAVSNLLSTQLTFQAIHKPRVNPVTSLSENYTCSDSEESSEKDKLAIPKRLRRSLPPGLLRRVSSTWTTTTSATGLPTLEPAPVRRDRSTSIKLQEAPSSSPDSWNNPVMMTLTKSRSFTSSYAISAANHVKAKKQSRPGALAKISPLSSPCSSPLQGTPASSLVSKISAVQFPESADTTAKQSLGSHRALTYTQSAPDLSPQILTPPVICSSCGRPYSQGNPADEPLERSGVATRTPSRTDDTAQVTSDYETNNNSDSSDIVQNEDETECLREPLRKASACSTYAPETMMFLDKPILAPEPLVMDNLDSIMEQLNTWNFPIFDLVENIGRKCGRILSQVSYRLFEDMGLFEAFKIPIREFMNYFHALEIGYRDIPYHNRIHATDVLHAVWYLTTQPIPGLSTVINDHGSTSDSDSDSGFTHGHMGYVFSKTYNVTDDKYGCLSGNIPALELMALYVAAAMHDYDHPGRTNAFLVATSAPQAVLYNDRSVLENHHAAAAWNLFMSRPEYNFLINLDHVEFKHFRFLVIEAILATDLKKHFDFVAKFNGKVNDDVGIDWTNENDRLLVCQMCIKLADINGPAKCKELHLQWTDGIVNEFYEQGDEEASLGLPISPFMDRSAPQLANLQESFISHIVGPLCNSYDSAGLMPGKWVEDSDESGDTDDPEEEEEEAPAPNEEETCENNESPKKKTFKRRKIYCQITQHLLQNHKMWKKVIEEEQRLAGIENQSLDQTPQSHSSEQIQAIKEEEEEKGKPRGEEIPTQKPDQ
Chain of Sodium-dependent dopamine transporter (Q01959 whole entry): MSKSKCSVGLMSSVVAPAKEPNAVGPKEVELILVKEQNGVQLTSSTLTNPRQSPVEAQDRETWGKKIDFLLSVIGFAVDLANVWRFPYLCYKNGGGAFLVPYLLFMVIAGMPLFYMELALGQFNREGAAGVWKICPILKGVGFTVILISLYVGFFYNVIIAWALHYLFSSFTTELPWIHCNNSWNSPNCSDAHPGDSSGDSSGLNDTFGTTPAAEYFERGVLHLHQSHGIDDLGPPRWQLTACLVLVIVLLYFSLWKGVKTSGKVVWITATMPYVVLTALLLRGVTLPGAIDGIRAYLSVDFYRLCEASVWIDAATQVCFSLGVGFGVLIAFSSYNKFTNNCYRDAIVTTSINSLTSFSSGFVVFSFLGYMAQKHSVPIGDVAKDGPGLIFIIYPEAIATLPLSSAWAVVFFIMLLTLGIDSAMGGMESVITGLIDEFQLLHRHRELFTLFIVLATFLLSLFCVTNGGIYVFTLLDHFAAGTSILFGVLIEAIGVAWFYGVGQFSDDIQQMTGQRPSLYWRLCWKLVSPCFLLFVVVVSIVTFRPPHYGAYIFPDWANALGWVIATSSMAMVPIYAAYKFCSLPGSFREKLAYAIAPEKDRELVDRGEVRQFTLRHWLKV
Chain of Acetylcholinesterase (P22303 whole entry): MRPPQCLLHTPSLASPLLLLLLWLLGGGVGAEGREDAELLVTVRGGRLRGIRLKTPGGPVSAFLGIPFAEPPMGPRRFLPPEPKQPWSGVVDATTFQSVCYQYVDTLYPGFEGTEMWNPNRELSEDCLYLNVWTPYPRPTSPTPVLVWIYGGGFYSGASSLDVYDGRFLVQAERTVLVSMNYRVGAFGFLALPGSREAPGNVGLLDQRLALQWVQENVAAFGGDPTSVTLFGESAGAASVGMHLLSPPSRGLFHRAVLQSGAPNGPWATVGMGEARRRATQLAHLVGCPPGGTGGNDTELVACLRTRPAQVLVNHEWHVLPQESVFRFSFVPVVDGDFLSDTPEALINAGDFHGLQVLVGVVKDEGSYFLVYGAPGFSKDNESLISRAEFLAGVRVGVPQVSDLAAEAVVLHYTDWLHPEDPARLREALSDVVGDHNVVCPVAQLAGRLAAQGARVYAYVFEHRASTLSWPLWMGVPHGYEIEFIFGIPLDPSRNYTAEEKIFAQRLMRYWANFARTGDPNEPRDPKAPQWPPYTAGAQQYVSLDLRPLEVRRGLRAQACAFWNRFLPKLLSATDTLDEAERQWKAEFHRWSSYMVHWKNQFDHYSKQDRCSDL
T4 sequence (P23219 whole entry): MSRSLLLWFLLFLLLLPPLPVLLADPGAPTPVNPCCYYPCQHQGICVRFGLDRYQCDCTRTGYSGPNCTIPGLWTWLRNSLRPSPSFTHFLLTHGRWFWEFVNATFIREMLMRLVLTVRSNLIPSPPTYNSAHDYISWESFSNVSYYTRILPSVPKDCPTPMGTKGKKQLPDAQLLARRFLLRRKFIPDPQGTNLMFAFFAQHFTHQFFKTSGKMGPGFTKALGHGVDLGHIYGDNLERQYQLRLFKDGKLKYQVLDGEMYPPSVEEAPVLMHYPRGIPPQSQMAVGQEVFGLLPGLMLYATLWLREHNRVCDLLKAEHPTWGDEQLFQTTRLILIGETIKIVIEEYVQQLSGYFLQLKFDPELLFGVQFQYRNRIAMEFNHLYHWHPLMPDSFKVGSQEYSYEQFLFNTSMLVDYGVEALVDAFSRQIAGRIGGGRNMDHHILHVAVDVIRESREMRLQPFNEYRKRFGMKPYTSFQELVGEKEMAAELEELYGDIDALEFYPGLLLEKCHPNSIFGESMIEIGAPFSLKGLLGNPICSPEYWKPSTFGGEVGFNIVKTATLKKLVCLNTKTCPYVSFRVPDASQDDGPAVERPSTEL
Chain of 3',5'-cyclic-AMP phosphodiesterase 4A (P27815 whole entry): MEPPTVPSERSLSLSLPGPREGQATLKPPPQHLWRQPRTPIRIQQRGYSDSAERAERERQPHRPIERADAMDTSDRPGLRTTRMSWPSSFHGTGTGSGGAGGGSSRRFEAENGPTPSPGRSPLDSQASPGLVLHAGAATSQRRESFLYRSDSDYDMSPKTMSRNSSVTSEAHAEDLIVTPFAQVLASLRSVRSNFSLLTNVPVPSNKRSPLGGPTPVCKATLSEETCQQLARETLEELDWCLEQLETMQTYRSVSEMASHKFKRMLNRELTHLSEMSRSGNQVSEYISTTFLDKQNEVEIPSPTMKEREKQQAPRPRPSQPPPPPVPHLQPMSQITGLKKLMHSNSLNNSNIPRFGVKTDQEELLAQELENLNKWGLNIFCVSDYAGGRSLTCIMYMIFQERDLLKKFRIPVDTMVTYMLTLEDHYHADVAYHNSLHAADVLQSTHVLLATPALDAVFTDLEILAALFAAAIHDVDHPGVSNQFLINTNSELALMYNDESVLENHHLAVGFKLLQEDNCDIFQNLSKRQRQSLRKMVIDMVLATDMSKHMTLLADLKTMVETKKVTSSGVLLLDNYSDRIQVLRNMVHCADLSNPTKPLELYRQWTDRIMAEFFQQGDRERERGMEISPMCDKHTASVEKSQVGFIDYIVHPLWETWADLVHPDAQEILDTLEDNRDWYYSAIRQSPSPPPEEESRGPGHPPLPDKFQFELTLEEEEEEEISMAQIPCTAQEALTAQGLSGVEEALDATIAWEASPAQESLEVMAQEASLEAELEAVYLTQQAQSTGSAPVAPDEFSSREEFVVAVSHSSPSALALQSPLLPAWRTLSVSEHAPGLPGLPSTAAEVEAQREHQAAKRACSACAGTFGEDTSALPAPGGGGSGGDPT

SMILES | AC50 [1] [µM] | AC50 [2] [µM] | AC50 [3] [µM] | AC50 [4] [µM] | AC50 [5] [µM] | AC50 [6] [µM] | AC50 [7] [µM] | AC50 [8] [µM] | AC50 [9] [µM] | AC50 [10] [µM] | AC50 [11] [µM] | AC50 [12] [µM] | AC50 [13] [µM] | AC50 [14] [µM] | AC50 [15] [µM]
CN(C)CCN(Cc1ccc(Cl)cc1)c1ccccn1 [CHLOROPYRAMINE] | > 30 | 12.2 | 2.88 | 2.23 | 1.35 | > 30 | > 30 | > 30 | 0.54 | > 30 | > 30 | > 30 | > 30 | 0.21 | > 30
O=C(O)c1cc(=O)c2ccccc2o1 [CHROMOCARB] | > 30 | > 30 | > 30 | > 30 | > 30 | > 30 | > 30 | > 30 | > 30 | > 30 | > 30 | 23.9 | > 30 | > 30 | > 30
CN(CC(=O)O)C(=N)N [CREATINE] | > 30 | > 30 | > 30 | > 30 | > 30 | > 30 | > 30 | > 30 | > 30 | > 30 | > 30 | > 30 | > 30 | > 30 | > 30
C[C@]12CC[C@@H]3c4ccc(O)cc4CC[C@H]3[C@@H]1CC[C@@H]2OC(=O)CCC1CCCC1 [ESTRADIOL CYPIONATE] | > 30 | > 30 | > 30 | > 30 | > 30 | > 30 | > 30 | > 30 | > 30 | 12.5 | 17.6 | 4.37 | > 30 | > 30 | > 30
CC1(C)O[C@@H]2C[C@H]3[C@@H]4CCC5=CC(=O)CC[C@]5(C)[C@@]4(F)[C@@H](O)C[C@]3(C)[C@]2(C(=O)CCl)O1 [HALCINONIDE] | > 30 | > 30 | > 30 | > 30 | > 30 | > 30 | > 30 | > 30 | > 30 | > 30 | > 30 | > 30 | > 30 | > 30 | > 30
N=C(N)NCc1cccc([123I])c1 [IOBENGUANE I 123] | > 30 | 0.488 | > 30 | 13.4 | 8.17 | > 30 | > 30 | 2.49 | > 30 | > 30 | > 30 | > 30 | > 30 | 6.39 | > 30
C=C1c2c(Cl)ccc(O)c2C(=O)C2=C(O)[C@]3(O)C(=O)C(C(N)=O)=C(O)[C@@H](N(C)C)[C@@H]3[C@@H](O)[C@H]12 [MECLOCYCLINE] | > 30 | > 30 | > 30 | > 30 | > 30 | > 30 | > 30 | > 30 | > 30 | > 30 | > 30 | > 30 | > 30 | > 30 | > 30
Cc1cc2c(OCC(O)CNC(C)C)cccc2[nH]1 (stereo not given) [MEPINDOLOL] | > 30 | 12.3 | > 30 | > 30 | 19.9 | > 30 | > 30 | 0.0041 | > 30 | > 30 | > 30 | 15.2 | 10.9 | > 30 | > 30
CCOc1cc(N)c(Cl)cc1C(=O)NCC1CN(Cc2ccc(F)cc2)CCO1 (stereo not given) [MOSAPRIDE] | > 30 | 3.01 | > 30 | > 30 | 6.86 | > 30 | > 30 | 5.18 | > 30 | > 30 | > 30 | > 30 | > 30 | > 30 | > 30
CN(C)c1cc(CNCC(C)(C)C)c(O)c2c1C[C@H]1C[C@H]3[C@H](N(C)C)C(O)=C(C(N)=O)C(=O)[C@@]3(O)C(O)=C1C2=O [OMADACYCLINE] | > 10 | > 30 | 9.2 | > 30 | > 30 | > 30 | > 30 | > 30 | > 30 | > 30 | > 30 | 0.25 | 0.16 | > 30 | > 30
O=C1[C@H]2CCCC[C@H]2C(=O)N1CCCCN1CCN(c2nsc3ccccc23)CC1 [PEROSPIRONE] | > 30 | 0.22 | 7.34 | 0.054 | 0.003 | > 30 | > 30 | 0.003 | 2.3 | > 30 | > 30 | > 30 | > 30 | 3.31 | > 30
CN(C)CCC(c1ccccc1)c1ccccn1 (stereo not given) [PHENIRAMINE] | > 30 | > 30 | 24.7 | > 30 | > 30 | > 30 | > 30 | > 30 | > 30 | > 30 | > 30 | > 30 | > 30 | > 30 | > 30
CC(C)(C)C(=O)NCCCC(=O)O [PIVAGABINE] | > 30 | > 30 | > 30 | > 30 | > 30 | > 30 | > 30 | > 30 | > 30 | > 30 | > 30 | > 30 | > 30 | > 30 | > 30
CCCCNc1ccc(C(=O)OCCN(C)C)cc1 [TETRACAINE] | 8.1 | > 30 | > 30 | > 30 | 18.5 | > 30 | 24.2 | > 30 | 25.9 | > 30 | > 30 | > 30 | > 30 | 21.9 | > 30
